The values that follow come from patent publication US6353006B1, “Substituted 2-arylimino heterocycles and compositions containing them, for use as progesterone receptor binding agents” (Bayer Corporation, priority 1999, dated 2002).

What is called melting point is the temperature of the solid-liquid transition. `Cc1cc([N+](=O)[O-])ccc1N=C1SC(=O)CN1CC(C)C` [Entry 310, 2-(2-methyl-4-nitrophenylimino)-3-isobutyl-1,3-thiazolidin-5-one] had a melting point of 152 °C.

Consider `CCc1cc(C(=O)O)ccc1N=C1SCC2(CCCC2)N1C1CCCC1` [Entry 253, 2-(4-carboxy-2-ethylphenylimino)-1-cyclopentyl-3-thia-1-azaspiro[4.4]nonane], for which the melting point fell in the range of 208 to 209 °C.

For `CCc1cc(C=C(C#N)C#N)ccc1N=C1SCC2(CCCC2)N1C1CCCC1` [Entry 271, 2-(2-ethyl-4-(2,2-dicyanovinyl)phenylimino)-1-cyclopentyl-3-thia-1-azaspiro[4.4]nonane], the melting point lay within 135 to 136 °C.

The compound `CCc1cc(C(C)=O)ccc1N=C1SCC2(CCCC2)N1C1CCCC1` [Entry 255, 2-(4-acetyl-2-ethylphenylimino)-1-cyclopentyl-3-thia-1-azaspiro[4.4]nonane] registered a melting point of 114 to 115 °C.

The compound `CCc1cc(C#N)ccc1N=C1OCC(C)(C)N1C1CCCC1` [Entry 319, 2-(4-cyano-2-ethylphenylimino)-3-cyclopentyl-4,4-dimethyl-1,3-oxazolidine] had a melting point of 112 to 114 °C.

In turn, `CCc1cc(/C=C/[N+](=O)[O-])ccc1N=C1SCC2(CCCC2)N1C1CCCC1` [Entry 269, 2-(2-ethyl-4-((1E)-2-nitrovinyl)phenylimino)-1-cyclopentyl-3-thia-1-azaspiro[4.4]nonane] had a melting point of 141 to 142 °C.
